The experiment has as its target T1, hKv3.1b (Homo sapiens, UniProt P48547).
T1 construct: expressed in transfected cells
T1 sequence (P48547 1-585 isoform P48547-2): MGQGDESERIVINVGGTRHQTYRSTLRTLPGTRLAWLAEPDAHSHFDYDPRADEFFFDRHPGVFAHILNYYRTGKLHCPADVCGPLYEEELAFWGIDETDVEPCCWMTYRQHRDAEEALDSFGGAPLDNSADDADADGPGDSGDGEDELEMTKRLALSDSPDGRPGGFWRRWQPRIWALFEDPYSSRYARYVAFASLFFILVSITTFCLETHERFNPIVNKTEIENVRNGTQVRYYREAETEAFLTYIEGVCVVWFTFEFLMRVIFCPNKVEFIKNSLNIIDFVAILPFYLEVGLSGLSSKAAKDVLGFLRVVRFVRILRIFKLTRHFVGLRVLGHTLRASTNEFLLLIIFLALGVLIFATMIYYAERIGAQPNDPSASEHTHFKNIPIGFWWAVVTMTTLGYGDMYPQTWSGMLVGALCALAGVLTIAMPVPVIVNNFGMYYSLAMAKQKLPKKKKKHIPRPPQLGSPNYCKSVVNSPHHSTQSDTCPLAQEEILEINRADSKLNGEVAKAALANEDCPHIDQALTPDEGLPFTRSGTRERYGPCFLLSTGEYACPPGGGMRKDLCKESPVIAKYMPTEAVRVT
As to the kind of experiment: Automated patch clamp (QPatch-16x) on HEK-293 cells stably expressing hKv3.1b. It counts as cell-based. Particulars: for ECdelta5 mV: concentration needed to shift the activation threshold 5 mV; for Threshold Shift: maximum absolute hyperpolarizing shift of activation threshold at tested concentrations 0.37-30 μM. Here is the method:
HEK-293 cells stably expressing hKv3.1b were used for the experiments. Cells were cultured in DMEM medium supplemented with 10% Fetal Bovine Serum, 100 ug/mL Geneticidin and 100 u/mL Penicillin/Streptomycin (all from Gibco). Cells were grown to 80-90% confluency at 37° C. and 5% CO2. On the day of the experiment the cells were detached from the tissue culture flasks by Detachin, resuspended in serum free medium containing 25 mM HEPES and transferred to the cell hotel of the QPatch. The cells were used for experiments 0-5 hours after detachment.
Patch-clamp recordings were performed using the automated recording system QPatch-16x (Sophion Bioscience, Denmark). Cells were centrifuged, SFM removed and the cells were resuspended in extracellular buffer containing (in mM): 145 NaCl, 4 KCl, 1 MgCl2, 2 CaCl2, 10 HEPES and 10 glucose (added fresh on the day of experiment); pH 7.4 adjusted with NaOH, 305 mOsm adjusted with sucrose.
Single cell whole-cell recordings were carried out using an intracellular solution containing (in mM): 120 KCl, 32.25/10 KOH/EGTA, 5.374 CaCl2, 1.75 MgCl2, 10 HEPES, 4 Na2ATP (added fresh on the day), pH 7.2 adjusted with KOH, […] adjusted with sucrose. Cell membrane potentials were held at −80 mV and currents were evoked by voltage steps (200 ms duration) from −70 mV to +10 mV (in 10 mV increments). Vehicle (0.33% DMSO) or increasing concentration of compound (I) were applied and the voltage protocol was run 3 times (resulting in 3 min cpd incubation time). Five increasing concentrations of compound (I) were applied to each cell.
Leak subtraction protocol was applied at −33% of the sweep amplitude, and serial resistance values were constantly monitored.
Any cell where serial resistance exceeded 25 MOhm, membrane resistance less than 200 MOhm or current size at −10 mV less than 200 pA was eliminated from the subsequent analysis.
Data analysis was performed using Sophion's QPatch assay software in combination with Microsoft Excel™ (Redmond, Wash., USA). Current voltage relationships were plotted from the peak current at the individual voltage steps normalized to the vehicle addition at 10 mV. The voltage threshold for channel activation was defined as 5% activation of the peak current at 10 mV in presence of vehicle. The activity of the compounds was described as the ability to shift this current voltage relationship to more hyperpolarized potentials and is given as the maximum absolute shift possible at the tested concentrations (0.37, 1.11, 3.33, 10, 30 μM). Concentration response curves were plotted from the threshold shift at the individual concentrations and were fitted excel fit model 205 sigmoidal dose-response model (fit=A+((B−A)/1+((C/x)^D)))), where A is the minimum value, B the maximum value, C the EC50 value and D the slope of the curve. The concentration needed to shift the threshold 5 mV was readout from this curve (ECdelta5 mV).
(The patch-clamp technique gives a direct electrical read-out from membranes.)

In the case of `Cc1cnc(CNC(=O)c2ccn(S(=O)(=O)c3ccc4c(c3)CCO4)c2)cn1` [Compound 102, 1-(2,3-dihydrobenzofuran-5-ylsulfonyl)-N-[(5-methylpyrazin-2-yl)methyl]pyrrole-3-carboxamide], the “ECdelta5 mV” value turned out to be 1400 nM and the “Threshold Shift” value stood at 32 mV.

In the case of `Cc1ccc(S(=O)(=O)n2ccc(C(=O)NCc3cn(C)nn3)c2)cc1` [Compound 41, N-[(1-methyltriazol-4-yl)methyl]-1-(p-tolylsulfonyl)pyrrole-3-carboxamide], the “ECdelta5 mV” value was determined as 3100 nM and the “Threshold Shift” value is given as 17 mV.

Regarding `COc1ccc(S(=O)(=O)n2ccc(C(=O)NCc3ncc(C)cn3)c2)c(Cl)c1` [Compound 118, 1-(2-chloro-4-methoxybenzene-1-sulfonyl)-N-[(5-methylpyrimidin-2-yl)methyl]-1H-pyrrole-3-carboxamide], the “ECdelta5 mV” value is given as 2500 nM and the “Threshold Shift” value stood at 20 mV.

Consider `Cc1cc(C)c(S(=O)(=O)n2ccc(C(=O)NCc3cnc(C)cn3)c2)c(C)c1` [Compound 103, N-[(5-methylpyrazin-2-yl)methyl]-1-(2,4,6-trimethylphenyl)sulfonyl-pyrrole-3-carboxamide], for which the “ECdelta5 mV” value came to 720 nM and the “Threshold Shift” value worked out at 24 mV.

As to `Cc1ccc(S(=O)(=O)n2ccc(C(=O)NCc3cnc(C)cn3)c2)c(F)c1` [Compound 95, 1-(2-fluoro-4-methyl-phenyl)sulfonyl-N-[(5-methylpyrazin-2-yl)methyl]pyrrole-3-carboxamide], the “ECdelta5 mV” value is given as 1100 nM and the “Threshold Shift” value came out at 24 mV.

Consider `Cc1ccc(S(=O)(=O)n2ccc(C(=O)NCc3cnco3)c2)cc1` [Compound 50, 1-(4-methylbenzene-1-sulfonyl)-N-[(1,3-oxazol-5-yl)methyl]-1H-pyrrole-3-carboxamide], for which the “ECdelta5 mV” value turned out to be 3300 nM and the “Threshold Shift” value is reported as 13 mV.

Turning to `Cc1ccc(CNC(=O)c2ccn(S(=O)(=O)c3ccc(F)cc3)c2)cn1` [Compound 85, 1-(4-fluorobenzene-1-sulfonyl)-N-[(6-methylpyridin-3-yl)methyl]-1H-pyrrole-3-carboxamide], the “ECdelta5 mV” value was found to be 3100 nM and the “Threshold Shift” value came out at 18 mV.

Take `Cc1ccc(S(=O)(=O)n2ccc(C(=O)NCc3nccs3)c2)cc1` [Compound 51, 1-(4-methylbenzene-1-sulfonyl)-N-[(1,3-thiazol-2-yl)methyl]-1H-pyrrole-3-carboxamide]: the “ECdelta5 mV” value is 2400 nM and the “Threshold Shift” value stood at 14 mV.

For the molecule `O=C(NCc1cnccn1)c1ccn(S(=O)(=O)c2ccccc2F)c1` [Compound 59, 1-(2-fluorobenzene-1-sulfonyl)-N-[(pyrazin-2-yl)methyl]-1H-pyrrole-3-carboxamide], the “ECdelta5 mV” value turned out to be 2000 nM and the “Threshold Shift” value came to 14 mV.

Turning to `Cc1ccc(S(=O)(=O)n2ccc(C(=O)NCc3cnn(C)c3)c2)cc1` [Compound 37, N-[(1-methylpyrazol-4-yl)methyl]-1-(p-tolylsulfonyl) pyrrole-3-carboxamide], the “ECdelta5 mV” value turned out to be 1800 nM and the “Threshold Shift” value was found to be 22 mV.

With `COc1ncc(CNC(=O)c2ccn(S(=O)(=O)c3ccc(C)cc3F)c2)cn1` [Compound 110, 1-(2-fluoro-4-methylbenzene-1-sulfonyl)-N-[(2-methoxypyrimidin-5-yl)methyl]-1H-pyrrole-3-carboxamide], the “ECdelta5 mV” value was determined as 1300 nM and the “Threshold Shift” value was 24 mV.

For the molecule `Cc1cnc(CNC(=O)c2ccn(S(=O)(=O)c3ccccc3C)c2)cn1` [Compound 28, N-[(5-methylpyrazin-2-yl)methyl]-1-(o-tolylsulfonyl) pyrrole-3-carboxamide], the “ECdelta5 mV” value was found to be 1500 nM and the “Threshold Shift” value came out at 27 mV.

Regarding `Cc1ccc(S(=O)(=O)n2ccc(C(=O)NCc3ccccn3)c2)cc1` [Compound 9, 1-(p-tolylsulfonyl)-N-(2-pyridylmethyl) pyrrole-3-carboxamide], the “ECdelta5 mV” value stood at 2400 nM and the “Threshold Shift” value amounted to 15 mV.

`Cc1cnc(CNC(=O)c2ccn(S(=O)(=O)c3ccccc3)c2)cn1` [Compound 48, 1-(benzenesulfonyl)-N-[(5-methylpyrazin-2-yl)methyl]-1H-pyrrole-3-carboxamide]: the “ECdelta5 mV” value was 2300 nM and the “Threshold Shift” value turned out to be 18 mV.

For the molecule `Cc1cccc(S(=O)(=O)n2ccc(C(=O)NCc3ccn(C)n3)c2)c1` [Compound 60, 1-(3-methylbenzene-1-sulfonyl)-N-[(1-methyl-1H-pyrazol-3-yl)methyl]-1H-pyrrole-3-carboxamide], the “ECdelta5 mV” value amounted to 2200 nM and the “Threshold Shift” value came out at 16 mV.

As for `Cc1ccc(S(=O)(=O)n2ccc(C(=O)NCc3cnc(Cl)cn3)c2)cc1` [Compound 89, N-[(5-chloropyrazin-2-yl)methyl]-1-(4-methylbenzene-1-sulfonyl)-1H-pyrrole-3-carboxamide], the “ECdelta5 mV” value came to 660 nM and the “Threshold Shift” value stood at 23 mV.

Take `COc1ccc(S(=O)(=O)n2ccc(C(=O)NCc3ccc(C)cn3)c2)cc1` [Compound 70, 1-(4-methoxybenzene-1-sulfonyl)-N-[(5-methylpyridin-2-yl)methyl]-1H-pyrrole-3-carboxamide]: the “ECdelta5 mV” value turned out to be 1100 nM and the “Threshold Shift” value is 17 mV.

Consider `Cc1noc(CNC(=O)c2ccn(S(=O)(=O)c3ccc(F)cc3)c2)n1` [Compound 65, 1-(4-fluorobenzene-1-sulfonyl)-N-[(3-methyl-1,2,4-oxadiazol-5-yl)methyl]-1H-pyrrole-3-carboxamide], for which the “ECdelta5 mV” value worked out at 4200 nM and the “Threshold Shift” value was determined as 14 mV.

For `Cc1noc(CNC(=O)c2ccn(S(=O)(=O)c3ccccc3C)c2)n1` [Compound 75, 1-(2-methylbenzene-1-sulfonyl)-N-[(3-methyl-1,2,4-oxadiazol-5-yl)methyl]-1H-pyrrole-3-carboxamide], the “ECdelta5 mV” value was 3200 nM and the “Threshold Shift” value came to 14 mV.

In the case of `Cn1ccc(CNC(=O)c2ccn(S(=O)(=O)c3ccccc3)c2)n1` [Compound 82, 1-(benzenesulfonyl)-N-[(1-methyl-1H-pyrazol-3-yl)methyl]-1H-pyrrole-3-carboxamide], the “ECdelta5 mV” value amounted to 4100 nM and the “Threshold Shift” value was 14 mV.

`Cc1ccc(S(=O)(=O)n2ccc(C(=O)NCc3cccc(C)n3)c2)cc1` [Compound 15, N-[(6-methyl-2-pyridyl)methyl]-1-(p-tolylsulfonyl)pyrrole-3-carboxamide]: the “ECdelta5 mV” value came to 1700 nM and the “Threshold Shift” value was 14 mV.

Take `Cc1ccc(S(=O)(=O)n2ccc(C(=O)NCc3cnccn3)c2)cc1` [Compound 29, 1-(p-tolylsulfonyl)-N-(pyrazin-2-ylmethyl) pyrrole-3-carboxamide]: the “ECdelta5 mV” value is recorded as 1300 nM and the “Threshold Shift” value worked out at 31 mV.

With `Cc1cnc(CNC(=O)c2ccn(S(=O)(=O)c3ccccc3)c2)c(Cl)n1` [Compound 113, 1-(benzenesulfonyl)-N-[(3-chloro-5-methylpyrazin-2-yl)methyl]-1H-pyrrole-3-carboxamide], the “ECdelta5 mV” value was found to be 3500 nM and the “Threshold Shift” value amounted to 14 mV.

For the origin of these results see patent publication US20200131156A1, “ARYLSULFONYLPYROLECARBOXAMIDE DERIVATIVES AS Kv3 POTASSIUM CHANNEL ACTIVATORS” (H. Lundbeck A/S, priority 2018, published 2020).
